According to patent EP0646315B1, “Novel compositions containing an auxin transport inhibitor and another herbicide” (Novartis AG, priority 1993, dated 1995):

What was measured:
velvetleaf [1] = experiment: Field trial, post-emergent tank mix in field corn; format: in vivo, Abutilon theophrasti; details: post-emergent 35 days after seeding, weeds 41 to 89 cm, foliar broadcast tank mix, (z) 0.275 kg/ha, (a) 0.011 kg/ha, Aquagene 0.9 l/ha where named
Protocol: (§1) A field trial was conducted against velvetleaf and pigweed in field corn. Application was post-emergent 35 days after seeding with weeds at a height of 41 to 89 cm. Application was of tank mixed formulation by foliar applied broadcast treatment. Compound (a) above was tank mixed as is. Compound (z) above was tank mixed in the form of a 0.5 kg/l s.c. commercially available under the trademark […]®. Aquagene is a commercially available surfactant, (Universal Coop Incorporated, Minneapolis, MN).

pigweed [2] = experiment: Field trial, post-emergent tank mix in field corn; format: in vivo, Amaranthus sp.; details: post-emergent 35 days after seeding, weeds 41 to 89 cm, foliar broadcast tank mix, (z) 0.275 kg/ha, (a) 0.011 kg/ha, Aquagene 0.9 l/ha where named
Protocol: as §1

velvetleaf [3] = experiment: Greenhouse test, post-emergence; format: in vivo, Abutilon theophrasti; details: treatment 10 days post-emergence, evaluation 18 days after treatment, (e) 0.01 kg/ha, (z) 0.02 kg/ha, 3 repetitions
Protocol: (§2) A greenhouse test was conducted against velvetleaf, pigweed, morningglory and cocklebur. Treatment was at 10 days post-emergence and evaluation at 18 days after treatment. Compound (e) was formulated as technical a.i. in a mixture of equal parts acetone and water with 1/2% surfactant. Compound (z) was used in the commercially available form […]® herbicide (=480g/L a.i. equivalent) in water with 1/2% surfactant. The tank mixes were applied in a linear spray chamber with 3 repetitions per concentration.

pigweed [4] = experiment: Greenhouse test, post-emergence; format: in vivo, Amaranthus sp.; details: treatment 10 days post-emergence, evaluation 18 days after treatment, (e) 0.01 kg/ha, (z) 0.02 kg/ha, 3 repetitions
Protocol: as §2

morningglory = experiment: Greenhouse test, post-emergence; format: in vivo, Ipomoea sp.; details: treatment 10 days post-emergence, evaluation 18 days after treatment, (e) 0.01 kg/ha, (z) 0.02 kg/ha, 3 repetitions
Protocol: as §2

cocklebur = experiment: Greenhouse test, post-emergence; format: in vivo, Xanthium strumarium; details: treatment 10 days post-emergence, evaluation 18 days after treatment, (e) 0.01 kg/ha, (z) 0.02 kg/ha, 3 repetitions
Protocol: as §2

Molecule	activity at 275 g/ha (velvetleaf [1]; Abutilon theophrasti, 840 h, read-out: % of control Velvetleaf) [%]	activity at 275 g/ha (pigweed [2]; Amaranthus retroflexus, 840 h, read-out: % of control Pigweed) [%]	% control Velvetleaf (velvetleaf [3]) [%]	% control Pigweed (pigweed [4]) [%]	% control Morningglory (morningglory) [%]	% control Cocklebur (cocklebur) [%]	% of control Velvetleaf (velvetleaf [1]) [%]	% of control Pigweed (pigweed [2]) [%]
COc1c(Cl)ccc(Cl)c1C(=O)O [Compound (z), dicamba]	18	30	35	35	35	75	–	–
2-acetylnicotinic acid 4-(3,5-difluorophenyl)semicarbazone 2-(2-hydroxyethoxy)ethyl-ammonium salt [Compound (a)]	–	–	–	–	–	–	13	18
